Experimental data from patent US20260207490A1, “Hydroxydiphenylethane compound ointment, use thereof, and method for preparing same” (Cutia Therapeutics (Wuxi) Co., Ltd., priority 2022, published 2026).

Key:
[1] = Saturated solubility in different excipients; type: physicochemical
[2] = Saturated solubility in medium-chain triglycerides / isopropyl myristate / light liquid paraffin mixtures; type: physicochemical; details: for Saturation solubility of 2-isopropyl-5-(2′-phenylethyl)-1,3-benzenediol: room temperature
Source text: Experimental variables A, B, and C were set as the content of medium-chain triglycerides (%), isopropyl myristate (%), and light liquid paraffin (%), respectively (for the convenience of experimental design and operation, light liquid paraffin was used to represent all hydrocarbon compounds). According to the maximum safe dosage of excipients (FDA IID database), the variable range was set as follows: 0<A≤20, 0<B≤20. According to the preliminary experimental results (medium-chain triglycerides are more important for the dissolution of API and the stability of the system) and the requirements for the viscosity and skin feel of the ointment, the constraints were set as follows: A>B; A+B≤25%; A+B+C=100%.
According to the variable range and constraint conditions, a total of 20 experimental formulations were designed. After the components were mixed evenly in proportion, an excess of 2-isopropyl-5-(2′-phenylethyl)-1,3-benzenediol was added, stirred overnight at room temperature, centrifuged, the supernatant was filtered and diluted, and the saturated solubility of 2-isopropyl-5-(2′-phenylethyl)-1,3-benzenediol was tested.
The saturated solubility of 2-isopropyl-5-(2′-phenylethyl)-1,3-benzenediol in different proportions of medium-chain triglycerides, isopropyl myristate and light liquid paraffin solution was investigated to verify the accuracy of the prediction equation. The equation can accurately predict the solubility of API in different proportions of excipients. In practical applications, it is acceptable that the API content is within the range of no more than 1.2 times the saturated solubility, that is, 120%×(0.445829×A+0.032300×B−0.000599×C+0.008112×A×B−0.003841×A×C). Preferably, when the content of the active ingredient in the preparation is not higher than 0.445829×A+0.032300×B−0.000599×C+0.008112×A×B−0.003841×A×C, a better solution-type ointment can be prepared. It is further preferred that the content of the active ingredient in the preparation is not higher than 90% of the saturated solubility, that is, the content of the active ingredient in the preparation is not higher than 90%×(0.445829×A+0.032300×B−0.000599×C+0.008112×A×B−0.003841×A×C).

saturated solubility ([1]; in 10% glycerol): 0.00007% | saturated solubility ([1]; in 20% ethanol): 0.02% | saturated solubility ([1]; in Span 80): 3% | saturated solubility ([1]; in diethylene glycol monoethyl ether): 52% | saturated solubility ([1]; in isopropyl myristate): 27% | saturated solubility ([1]; in isopropyl palmitate): 23% | saturated solubility ([1]; in light liquid paraffin): 0.01% | saturated solubility ([1]; in medium-chain triglycerides): 27% | saturated solubility ([1]; in polyethylene glycol 400): 30% | saturated solubility ([1]; in polysorbate 80): 17% | saturated solubility ([1]; in propylene glycol): 30% | saturated solubility ([1]; in propylene glycol monolaurate): 30% | saturated solubility ([1]; in water): 0.0008% | Saturation solubility of 2-isopropyl-5-(2′-phenylethyl)-1,3-benzenediol ([2]; experimental formulation 1: MCT 5.97%, isopropyl myristate 5.97%, light liquid paraffin 88.06%): 1.09% | Saturation solubility of 2-isopropyl-5-(2′-phenylethyl)-1,3-benzenediol ([2]; experimental formulation 2: MCT 6.63%, isopropyl myristate 6.63%, light liquid paraffin 86.74%): 1.22% | Saturation solubility of 2-isopropyl-5-(2′-phenylethyl)-1,3-benzenediol ([2]; experimental formulation 3: MCT 20.00%, isopropyl myristate 0.00%, light liquid paraffin 80.00%): 2.47% | Saturation solubility of 2-isopropyl-5-(2′-phenylethyl)-1,3-benzenediol ([2]; experimental formulation 4: MCT 2.00%, isopropyl myristate 0.00%, light liquid paraffin 98.00%): 0.11% | Saturation solubility of 2-isopropyl-5-(2′-phenylethyl)-1,3-benzenediol ([2]; experimental formulation 5: MCT 12.50%, isopropyl myristate 12.50%, light liquid paraffin 75.00%): 3.78% | Saturation solubility of 2-isopropyl-5-(2′-phenylethyl)-1,3-benzenediol ([2]; experimental formulation 6: MCT 16.15%, isopropyl myristate 0.00%, light liquid paraffin 83.85%): 2.07% | Saturation solubility of 2-isopropyl-5-(2′-phenylethyl)-1,3-benzenediol ([2]; experimental formulation 7: MCT 20.00%, isopropyl myristate 0.00%, light liquid paraffin 80.00%): 2.91% | Saturation solubility of 2-isopropyl-5-(2′-phenylethyl)-1,3-benzenediol ([2]; experimental formulation 8: MCT 18.79%, isopropyl myristate 6.21%, light liquid paraffin 75.00%): 4.13% | Saturation solubility of 2-isopropyl-5-(2′-phenylethyl)-1,3-benzenediol ([2]; experimental formulation 9: MCT 11.30%, isopropyl myristate 3.90%, light liquid paraffin 84.80%): 1.73% | Saturation solubility of 2-isopropyl-5-(2′-phenylethyl)-1,3-benzenediol ([2]; experimental formulation 10: MCT 11.62%, isopropyl myristate 2.02%, light liquid paraffin 86.36%): 1.55% | Saturation solubility of 2-isopropyl-5-(2′-phenylethyl)-1,3-benzenediol ([2]; experimental formulation 11: MCT 10.84%, isopropyl myristate 0.00%, light liquid paraffin 89.16%): 1.05% | Saturation solubility of 2-isopropyl-5-(2′-phenylethyl)-1,3-benzenediol ([2]; experimental formulation 12: MCT 12.50%, isopropyl myristate 12.50%, light liquid paraffin 75.00%): 3.42% | Saturation solubility of 2-isopropyl-5-(2′-phenylethyl)-1,3-benzenediol ([2]; experimental formulation 13: MCT 9.35%, isopropyl myristate 8.77%, light liquid paraffin 81.88%): 2.20% | Saturation solubility of 2-isopropyl-5-(2′-phenylethyl)-1,3-benzenediol ([2]; experimental formulation 14: MCT 17.87%, isopropyl myristate 7.13%, light liquid paraffin 75.00%): 4.11% | Saturation solubility of 2-isopropyl-5-(2′-phenylethyl)-1,3-benzenediol ([2]; experimental formulation 15: MCT 10.84%, isopropyl myristate 0.00%, light liquid paraffin 89.16%): 1.06% | Saturation solubility of 2-isopropyl-5-(2′-phenylethyl)-1,3-benzenediol ([2]; experimental formulation 16: MCT 15.17%, isopropyl myristate 4.03%, light liquid paraffin 80.80%): 2.65% | Saturation solubility of 2-isopropyl-5-(2′-phenylethyl)-1,3-benzenediol ([2]; experimental formulation 17: MCT 13.29%, isopropyl myristate 8.31%, light liquid paraffin 78.40%): 3.98% | Saturation solubility of 2-isopropyl-5-(2′-phenylethyl)-1,3-benzenediol ([2]; experimental formulation 18: MCT 5.84%, isopropyl myristate 1.16%, light liquid paraffin 93.00%): 0.48% | Saturation solubility of 2-isopropyl-5-(2′-phenylethyl)-1,3-benzenediol ([2]; experimental formulation 19: MCT 2.00%, isopropyl myristate 0.00%, light liquid paraffin 98.00%): 0.09% | Saturation solubility of 2-isopropyl-5-(2′-phenylethyl)-1,3-benzenediol ([2]; experimental formulation 20: MCT 18.79%, isopropyl myristate 6.21%, light liquid paraffin 75.00%): 3.95% | Measured saturated solubility ([2]; validation group 1: MCT 20%, isopropyl myristate 0.85%, light liquid paraffin 79.15%): 3.32% | Measured saturated solubility ([2]; validation group 2: MCT 20%, isopropyl myristate 3.4%, light liquid paraffin 76.6%): 3.85% | Measured saturated solubility ([2]; validation group 3: MCT 13.75%, isopropyl myristate 9.23%, light liquid paraffin 77.02%): 3.52% | Measured saturated solubility ([2]; validation group 4: MCT 11.2%, isopropyl myristate 7.55%, light liquid paraffin 81.25%): 2.56% | Measured saturated solubility ([2]; validation group 5: MCT 8.72%, isopropyl myristate 5.04%, light liquid paraffin 86.24%): 1.58% | Measured saturated solubility ([2]; validation group 6: MCT 3%, isopropyl myristate 3%, light liquid paraffin 94%): 0.401% | Measured saturated solubility ([2]; validation group 7: MCT 2%, isopropyl myristate 2%, light liquid paraffin 96%): 0.203%
SMILES: CC(C)c1c(O)cc(CCc2ccccc2)cc1O [2-isopropyl-5-(2′-phenylethyl)-1,3-benzenediol]
